Experiment: Ames test (mutagenic potential)
Type: cell-based
Conditions: genotoxic testing of process compounds
Description: As discussed above, compound I (including salts thereof) is useful as a drug for treating HCV in humans. Thus, it is important that it be so prepared that it is safe for administration to humans. As one skilled in the art would understand, one aspect of drug safety is the minimization of the amount of genotoxic impurities that are associated with the production of a given drug, and, can therefore also be present in the drug product. A couple of well established tests are used to measure the genotoxicity of chemical compounds. One such test is the computer-based Derek analysis, and the other—the Ames test, which is a biological assay that assesses the mutagenic potential of chemical compounds.

For `Nc1ccc(I)cc1` [Compound 1a, 4-iodoaniline], which Ames test result is on record?
Its Ames test result is “negative”.

With `CS(=O)(=O)Nc1ccc(I)cc1` [Compound 2a, N-(4-iodophenyl)methanesulfonamide] as the compound, how does the Ames test result read?
Its Ames test result is “negative”.
